Assay results from patent US9604989B2, “Imidazopyridazines as Akt kinase inhibitors” (Bayer Intellectual Property GmbH, priority 2011, dated 2017).

Legend:
[1] = target: His-tagged human recombinant kinase full-length Akt1 (Homo sapiens (Human), UniProt P31749); assay: Akt1 kinase assay (Akt1 TR-FRET assay); format: biochemical; conditions: 10 μM ATP, 60 min at 22° C., read-out: Akt1 median IC50
Excerpt: Biological Assay 1.0: Akt1 Kinase Assay
Akt1 inhibitory activity of compounds of the present invention was quantified employing the Akt1 TR-FRET assay as described in the following paragraphs.
His-tagged human recombinant kinase full-length Akt1 expressed in insect cells was purchased form Invitrogen (part number PV 3599). As substrate for the kinase reaction the biotinylated peptide biotin-Ahx-[sequence] (C-terminus in amide form) was used which can be purchased e.g. from the company Biosynthan GmbH (Berlin-Buch, Germany).
For the assay 50 nl of a 100 fold concentrated solution of the test compound in DMSO was pipetted into a black low volume 384 well microtiter plate (Greiner Bio-One, Frickenhausen, Germany), 2 μl of a solution of Akt1 in assay buffer [50 mM TRIS/HCl pH 7.5, 5 mM MgCl2, 1 mM dithiothreitol, 0.02% (v/v) Triton X-100 (Sigma)] were added and the mixture was incubated for 15 min at 22° C. to allow pre-binding of the test compounds to the enzyme before the start of the kinase reaction. Then the kinase reaction was started by the addition of 3 μl of a solution of adenosine-tri-phosphate (ATP, 16.7 μM=>final conc. in the 5 μl assay volume is 10 μM) and substrate (1.67 μM=>final conc. in the 5 μl assay volume is 1 μM) in assay buffer and the resulting mixture was incubated for a reaction time of 60 min at 22° C. The concentration of Akt1 in the assay was adjusted depending of the activity of the enzyme lot and was chosen appropriate to have the assay in the linear range, typical enzyme concentrations were in the range of about 0.05 ng/μl (final conc. in the 5 μl assay volume). The reaction was stopped by the addition of 5 μl of a solution of HTRF detection reagents (200 nM streptavidine-XL665 [Cisbio] and 1.5 nM anti-phosho-Serine antibody [Millipore, cat. #35-001] and 0.75 nM LANCE Eu-W 1024 labeled anti-mouse IgG antibody [Perkin Elmer]) in an aqueous EDTA-solution (100 mM EDTA, 0.1% (w/v) bovine serum albumin in 50 mM HEPES/NaOH pH 7.5). The resulting mixture was incubated 1 h at 22° C. to allow the binding of the biotinylated phosphorylated peptide to the streptavidine-XL665 and the antibodies. Subsequently the amount of phosphorylated substrate was evaluated by measurement of the resonance energy transfer from the anti-mouse-IgG-Eu-Chelate to the streptavidine-XL665. Therefore, the fluorescence emissions at 620 nm and 665 nm after excitation at 350 nm was measured in a HTRF reader, e.g. a Rubystar (BMG Labtechnologies, Offenburg, Germany) or a Viewlux (Perkin-Elmer). The ratio of the emissions at 665 nm and at 622 nm was taken as the measure for the amount of phosphorylated substrate.

p-4E-BP1 at T70 = assay: Cellular p-4E-BP1-T70 assay in KPL-4 cells; format: cell-based; conditions: Homo sapiens, KPL4; KPL-4 breast tumour cell line, compound treatment 2 hours; read-out: P4EBP1-T70 median IC50
Description: The molecular mechanism of action was investigated in a set of experiments to assess the inhibition of the PI3K-AKT-mTOR pathway in responsive cell lines such as KPL-4 breast tumour cell line (PIK3CA^H1047R, HER2^O/E and hormone independent). The phospho-substrates of PI3K-AKT-mTOR axis were used as the read-outs to reflect pathway inhibition. Cells were seeded at 60-80% confluency per well in 96-well cell culture plates. After overnight incubation at 37° C. 5% CO2, cells were treated with compounds and vehicle at 37° C. for 2 hours. […] All measurements where at least done in duplicates and confirmed by independent repetition.

[2] = tested on: MCF-7 breast tumour cell line; assay: Tumor cell proliferation assay (CellTiter-Glo), MCF-7; format: cell-based; conditions: Homo sapiens, MCF7, 72 h drug exposure, read-out: MCF-7 median IC50
[3] = target: His-tagged human recombinant kinase full-length Akt2 (Homo sapiens (Human), UniProt P31751); assay: Akt2 kinase assay (Akt2 TR-FRET assay); format: biochemical; conditions: 10 μM ATP, 60 min at 22° C., read-out: Akt2 median IC50
Excerpt: Akt2 inhibitory activity of compounds of the present invention was quantified employing the Akt2 TR-FRET assay as described in the following paragraphs.
His-tagged human recombinant kinase full-length Akt2 expressed in insect cells and activated by PDK1 was purchased form Invitrogen (part number PV 3975). As substrate for the kinase reaction the biotinylated peptide biotin-Ahx-[sequence] (C-terminus in amide form) was used which can be purchased e.g. from the company Biosynthan GmbH (Berlin-Buch, Germany). For the assay 50 nl of a 100 fold concentrated solution of the test compound in DMSO was pipetted into a black low volume 384 well microtiter plate (Greiner Bio-One, Frickenhausen, Germany), 2 μl of a solution of Akt2 in assay buffer [50 mM TRIS/HCl pH 7.5, 5 mM MgCl2, 1 mM dithiothreitol, 0.02% (v/v) Triton X-100 (Sigma)] were added and the mixture was incubated for 15 min at 22° C. to allow pre-binding of the test compounds to the enzyme before the start of the kinase reaction. Then the kinase reaction was started by the addition of 3 μl of a solution of adenosine-tri-phosphate (ATP, 16.7 μM=>final conc. in the 5 μl assay volume is 10 μM) and substrate (1.67 μM=>final conc. in the 5 μl assay volume is 1 μM) in assay buffer and the resulting mixture was incubated for a reaction time of 60 min at 22° C. The concentration of Akt2 in the assay was adjusted depending of the activity of the enzyme lot and was chosen appropriate to have the assay in the linear range, typical enzyme concentrations were in the range of about 0.2 ng/μl (final conc. in the 5 μl assay volume). The reaction was stopped by the addition of 5 μl of a solution of HTRF detection reagents (200 nM streptavidine-XL665 [Cisbio] and 1.5 nM anti-phosho-Serine antibody [Millipore, cat. #35-001] and 0.75 nM LANCE Eu-W 1024 labeled anti-mouse IgG antibody [Perkin Elmer]) in an aqueous EDTA-solution (100 mM EDTA, 0.1% (w/v) bovine serum albumin in 50 mM HEPES/NaOH pH 7.5). The resulting mixture was incubated 1 h at 22° C. to allow the binding of the biotinylated phosphorylated peptide to the streptavidine-XL665 and the antibodies. Subsequently the amount of phosphorylated substrate was evaluated by measurement of the resonance energy transfer from the anti-mouse-IgG-Eu-Chelate to the streptavidine-XL665. Therefore, the fluorescence emissions at 620 nm and 665 nm after excitation at 350 nm was measured in a TR-FRET reader, e.g. a Rubystar (BMG Labtechnologies, Offenburg, Germany) or a Viewlux (Perkin-Elmer). The ratio of the emissions at 665 nm and at 622 nm was taken as the measure for the amount of phosphorylated substrate.

phospho-AKT at S473 = assay: Cellular p-AKT1/2/3-S473 assay in KPL-4 cells; format: cell-based; conditions: Homo sapiens, KPL4; KPL-4 breast tumour cell line, compound treatment 2 hours; read-out: pAKT-S473 median IC50
[4] = tested on: KPL-4 breast cancer cell line; assay: Tumor cell proliferation assay (CellTiter-Glo), KPL-4; format: cell-based; conditions: Homo sapiens, KPL4, 72 h drug exposure, read-out: KLP-4 median IC50
Description: Biological Assay 4.0: Tumor Cell Proliferation Assays
Compounds were tested in a cell-based assay that measures the capacity of the compounds to inhibit tumour cell proliferation following a 72 h drug exposure. Cell viability is determined using CellTiter-Glow® (CTG, Promega, cat#G7571/2/3). The CellTiter-Glo® Luminescent Cell Viability Assay is a homogeneous method to determine the number of viable cells in culture.
Detection is based on using the luciferase reaction to measure the amount of ATP from viable cells. The amount of ATP in cells correlates with cell viability. Within minutes after a loss of membrane integrity, cells lose the ability to synthesize ATP, and endogenous ATPases destroy any remaining ATP; thus the levels of ATP fall precipitously.
For each cell line assayed, cells were plated onto a separate plate for determination of fluorescence at t=0 hour and t=72 hour time points. Following overnight incubation at 37° C., chemiluminescence values for the t=0 samples were determined after adding 10 μl medium and 100 μl CTG solution according to manufacture protocol. Plates for the t=72 hour time points were treated with compounds diluted into growth medium at ten times final concentration added in 10 μL to the cell culture plate. Cells were then incubated for 72 hours at 37° C. Chemiluminescence values for the t=72 hour samples were determined. […] Experiments were controlled using a reference compound as standard.

Sequence of His-tagged human recombinant kinase full-length Akt1 (P31749 whole entry): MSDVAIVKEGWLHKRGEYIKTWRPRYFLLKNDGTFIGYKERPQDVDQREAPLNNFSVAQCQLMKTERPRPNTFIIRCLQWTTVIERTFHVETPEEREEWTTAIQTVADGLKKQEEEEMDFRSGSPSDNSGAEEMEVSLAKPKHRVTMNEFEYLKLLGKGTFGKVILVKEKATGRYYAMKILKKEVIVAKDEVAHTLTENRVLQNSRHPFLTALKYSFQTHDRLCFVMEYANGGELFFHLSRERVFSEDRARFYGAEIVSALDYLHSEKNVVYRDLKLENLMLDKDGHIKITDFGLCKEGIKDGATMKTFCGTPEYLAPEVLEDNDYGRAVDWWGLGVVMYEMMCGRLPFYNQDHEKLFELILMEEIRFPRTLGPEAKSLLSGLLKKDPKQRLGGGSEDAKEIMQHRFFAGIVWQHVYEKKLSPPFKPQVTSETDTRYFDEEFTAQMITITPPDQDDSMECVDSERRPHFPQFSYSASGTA
Sequence of His-tagged human recombinant kinase full-length Akt2 (P31751 whole entry): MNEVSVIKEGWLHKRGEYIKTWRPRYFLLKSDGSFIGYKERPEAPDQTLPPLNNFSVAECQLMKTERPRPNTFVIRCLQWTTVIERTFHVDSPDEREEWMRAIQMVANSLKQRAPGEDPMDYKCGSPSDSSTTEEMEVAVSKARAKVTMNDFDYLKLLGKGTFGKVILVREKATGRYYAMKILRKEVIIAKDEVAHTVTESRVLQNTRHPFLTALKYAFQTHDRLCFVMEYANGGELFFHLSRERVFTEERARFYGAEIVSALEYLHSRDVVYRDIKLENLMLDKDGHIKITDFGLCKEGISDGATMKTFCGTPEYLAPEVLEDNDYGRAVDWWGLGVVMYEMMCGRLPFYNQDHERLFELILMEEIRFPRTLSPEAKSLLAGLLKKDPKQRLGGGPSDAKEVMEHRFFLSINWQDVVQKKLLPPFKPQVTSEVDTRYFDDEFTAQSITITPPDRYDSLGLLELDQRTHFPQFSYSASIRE

Row | Compound | IC50 [1] | IC50 (p-4E-BP1 at T70) | IC50 [2] | IC50 [3] | IC50 (phospho-AKT at S473) | IC50 [4]
1 | Cn1nccc1-c1cc(Cl)nn2c(-c3ccccc3)c(-c3ccc(C4(N)CCC4)cc3)nc12 [Example 23, 1-{4-[6-Chloro-8-(1-methyl-1H-pyrazol-5-yl)-3-phenylimidazo[1,2-b]pyridazin-2-yl]phenyl} cyclobutanamine] | 1200 nM | 2900 nM | 2100 nM | 190 nM | 1400 nM | 2200 nM
2 | NC1(c2ccc(-c3nc4cccnn4c3-c3ccccc3)cc2)CCC1 [Example 25, 1-[4-(3-Phenylimidazo[1,2-b]pyridazin-2-yl)phenyl]cyclobutanamine] | 190 nM | 550 nM | 1900 nM | 160 nM | 90 nM | 2000 nM
3 | NC1(c2ccc(-c3nc4c(-c5cc[nH]n5)ccnn4c3-c3ccccc3)cc2)CCC1 [Example 27, 1-{4-[3-Phenyl-8-(1H-pyrazol-3-yl)imidazo[1,2-b]pyridazin-2-yl]phenyl}cyclobutanamine] | 15 nM | 480 nM | 1800 nM | 29 nM | 36 nM | 1800 nM
4 | NC1(c2ccc(-c3nc4c(OCc5ccccc5)cc(Cl)nn4c3-c3ccccc3)cc2)CCC1 [Example 29, 1-{4-[8-(Benzyloxy)-6-chloro-3-phenylimidazo[1,2-b]pyridazin-2-yl]phenyl}cyclobutanamine] | 56 nM | 1300 nM | 1700 nM | 78 nM | 210 nM | 2000 nM
5 | CCOc1cc(Cl)nn2c(-c3ccccc3)c(-c3ccc(C4(N)CCC4)cc3)nc12 [Example 30, 1-[4-(6-Chloro-8-ethoxy-3-phenylimidazo[1,2-b]pyridazin-2-yl)phenyl]cyclobutanamine] | 51 nM | 2500 nM | 2600 nM | 58 nM | 400 nM | 6000 nM
6 | CC(=O)Nc1ccc2nc(-c3ccc(C4(N)CCC4)cc3)c(-c3ccccc3)n2n1 [Example 37, N-{2-[4-(1-Aminocyclobutyl)phenyl]-3-phenylimidazo[1,2-b]pyridazin-6-yl}acetamide] | 580 nM | 2500 nM | 2000 nM | 510 nM | 81 nM | 3200 nM
7 | COC(=O)c1ccc2nc(-c3ccc(C4(N)CCC4)cc3)c(-c3ccccc3)n2n1 [Example 39, Methyl 2-[4-(1-aminocyclobutyl)phenyl]-3-phenylimidazo[1,2-b]pyridazine-6-carboxylate] | 38 nM | 7500 nM | 6100 nM | 160 nM | 280 nM | > 10000 nM
8 | NC1(c2ccc(-c3nc4ccc(Br)nn4c3-c3ccccc3)cc2)CCC1 [Example 41, 1-[4-(6-Bromo-3-phenylimidazo[1,2-b]pyridazin-2-yl)phenyl]cyclobutanamine] | 33 nM | > 10000 nM | > 10000 nM | 66 nM | > 10000 nM | > 10000 nM
9 | NC1(c2ccc(-c3nc4c(-c5ccc(F)cc5)cc(-c5ccc(F)cc5)nn4c3-c3ccccc3)cc2)CCC1 [Example 42, 1-{4-[6,8-Bis(4-fluorophenyl)-3-phenylimidazo[1,2-b]pyridazin-2-yl]phenyl}cyclobutanamine] | 20000 nM | 2600 nM | 4200 nM | 20000 nM | 120 nM | 2800 nM
10 | CS(=O)(=O)Nc1ccc2nc(-c3ccc(C4(N)CCC4)cc3)c(-c3ccccc3)n2n1 [Example 45, N-{2-[4-(1-Aminocyclobutyl)phenyl]-3-phenylimidazo[1,2-b]pyridazin-6-yl} methanesulfonamide] | 1200 nM | > 10000 nM | > 10000 nM | 6600 nM | > 10000 nM | > 10000 nM
11 | CC(=O)Nc1ccnn2c(-c3ccccc3)c(-c3ccc(C4(N)CCC4)cc3)nc12 [Example 49, N-{2-[4-(1-Aminocyclobutyl)phenyl]-3-phenylimidazo[1,2-b]pyridazin-8-yl}acetamide] | 68 nM | 41 nM | 610 nM | 120 nM | 8 nM | 140 nM
12 | Cc1c(Cl)nn2c(-c3ccccc3)c(-c3ccc(C4(N)CCC4)cc3)nc2c1C [Example 50, 1-[4-(6-Chloro-7,8-dimethyl-3-phenylimidazo[1,2-b]pyridazin-2-yl)phenyl]-cyclobutanamine] | 44 nM | 2000 nM | 1800 nM | 27 nM | 450 nM | 1700 nM
13 | COC(=O)c1nn2c(-c3ccccc3)c(-c3ccc(C4(N)CCC4)cc3)nc2c(C)c1C [Example 51, Methyl 2-[4-(1-aminocyclobutyl)phenyl]-7,8-dimethyl-3-phenylimidazo[1,2-b]pyridazine-6-carboxylate] | 42 nM | 1200 nM | 1400 nM | 81 nM | 590 nM | 7000 nM
14 | Cc1c(C(N)=O)nn2c(-c3ccccc3)c(-c3ccc(C4(N)CCC4)cc3)nc2c1C [Example 52, 2-[4-(1-Aminocyclobutyl)phenyl]-7,8-dimethyl-3-phenylimidazo[1,2-b]-pyridazine-6-carboxamide] | 26 nM | 9.9 nM | 110 nM | 15 nM | 2.1 nM | 140 nM
15 | COc1nn2c(-c3ccccc3)c(-c3ccc(C4(N)CCC4)cc3)nc2c(C)c1C [Example 53, 1-[4-(6-Methoxy-7,8-dimethyl-3-phenylimidazo[1,2-b]pyridazin-2-yl)phenyl]-cyclobutanamine] | 9.2 nM | 1000 nM | 870 nM | 2.4 nM | 200 nM | 1700 nM
16 | CSc1nn2c(-c3ccccc3)c(-c3ccc(C4(N)CCC4)cc3)nc2c(C)c1C [Example 54, 1-{4-[7,8-Dimethyl-6-(methylsulfanyl)-3-phenylimidazo[1,2-b]pyridazin-2-yl]-phenyl}cyclobutanamine] | 12 nM | 1600 nM | 1800 nM | 35 nM | 690 nM | 740 nM
17 | COC(=O)c1cc(-c2cc[nH]n2)c2nc(-c3ccc(C4(N)CCC4)cc3)c(-c3ccccc3)n2n1 [Example 56, Methyl 2-[4-(1-aminocyclobutyl)phenyl]-3-phenyl-8-(1H-pyrazol-3-yl)-imidazo[1,2-b]pyridazine-6-carboxylate] | 6.6 nM | 360 nM | 1100 nM | 16 nM | 570 nM | 8200 nM
18 | CCOc1cc(C(=O)OC)nn2c(-c3ccccc3)c(-c3ccc(C4(N)CCC4)cc3)nc12 [Example 57, Methyl 2-[4-(1-aminocyclobutyl)phenyl]-8-ethoxy-3-phenylimidazo[1,2-b]pyridazine-6-carboxylate] | 25 nM | 1800 nM | 2100 nM | 29 nM | 250 nM | 9400 nM
19 | COC(=O)c1cc(-c2ncc[nH]2)c2nc(-c3ccc(C4(N)CCC4)cc3)c(-c3ccccc3)n2n1 [Example 58, Methyl 2-[4-(1-aminocyclobutyl)phenyl]-8-(1H-imidazol-2-yl)-3-phenylimidazo[1,2-b]pyridazine-6-carboxylate] | 110 nM | 10000 nM | > 10000 nM | 280 nM | 1000 nM | > 10000 nM
20 | CCOc1cc(C(N)=O)nn2c(-c3ccccc3)c(-c3ccc(C4(N)CCC4)cc3)nc12 [Example 61, 2-[4-(1-Aminocyclobutyl)phenyl]-8-ethoxy-3-phenylimidazo[1,2-b]pyridazine-6-carboxamide] | 4.1 nM | 2 nM | 56 nM | 3.7 nM | 0.5 nM | 33 nM
21 | CNC(=O)c1ccnn2c(-c3ccccc3)c(-c3ccc(C4(N)CCC4)cc3)nc12 [Example 63, 2-[4-(1-Aminocyclobutyl)phenyl]-N-methyl-3-phenylimidazo[1,2-b]pyridazine-8-carboxamide] | 46 nM | 0.3 nM | 760 nM | 120 nM | 3.8 nM | 1600 nM
22 | CNC(=O)c1cc(-c2cc[nH]n2)c2nc(-c3ccc(C4(N)CCC4)cc3)c(-c3ccccc3)n2n1 [Example 65, 2-[4-(1-Aminocyclobutyl)phenyl]-N-methyl-3-phenyl-8-(1H-pyrazol-3-yl)imidazo[1,2-b]pyridazine-6-carboxamide] | 3.1 nM | 22 nM | 280 nM | 2.6 nM | 1.4 nM | 470 nM
23 | CNC(=O)c1ccc2nc(-c3ccc(C4(N)CCC4)cc3)c(-c3ccccc3)n2n1 [Example 68, 2-[4-(1-Aminocyclobutyl)phenyl]-N-methyl-3-phenylimidazo[1,2-b]-pyridazine-6-carboxamide] | 21 nM | 5300 nM | 680 nM | 66 nM | 3.7 nM | 1500 nM
24 | NC1(c2ccc(-c3nc4c(-c5cc[nH]n5)cc(C(=O)NCCO)nn4c3-c3ccccc3)cc2)CCC1 [Example 71, 2-[4-(1-Aminocyclobutyl)phenyl]-N-(2-hydroxyethyl)-3-phenyl-8-(1H-pyrazol-3-yl)imidazo[1,2-b]pyridazine-6-carboxamide] | 11 nM | 10000 nM | 780 nM | 20 nM | 92 nM | 2000 nM
